Test results from patent US20210015793A1, “COMPOUNDS FOR TREATING CNS- AND NEURODEGENERATIVE DISEASES” (ETH ZURICH, priority 2018, published 2021).
Entries after “also recorded” stand apart in the source; their conditions may differ.

Key:
[1] = tested on: Tg2576 AD mice; test: Hippocampal neuronal cell bodies by direct binding assay with [125I]-labeled anti-NeuN antibody, Tg2576 mice subjected to CUMS; assay type: in vivo, mouse; conditions: 15-month-old Tg2576 mice, 3 months of CUMS with treatment, vs untreated stressed controls
Text: For a genetic model of familial AD (FAD), Tg2576 mice (Taconic Biosciences, Rensselaer, N.Y., USA) were used with neuron-specific overexpression of human APPSwe, i.e the Swedish mutation of APP695 isolated from a Swedish family with FAD featuring the double mutation K670N/M671L (Hsiao et al., Science 274, 99-103 (1996)). As a genetic model of tauopathy, the Tg-TauP301L mice (Model 2508, Taconic Biosciences, Rensselaer, N.Y., USA) with neuron-specific expression of the most common FTDP-17 (frontotemporal dementia and parkinsonism linked to chromosome 17) mutation (Lewis et al., Nature Genetics 25, 402-405 (2000)) were used. […]
Neuronal cell loss and hyperphosphorylated PHF Tau were determined in hippocampi of 15 months-old Tg2576 mice, which were treated without or with Compound-1 and Compound-4 for three months during the neurodegeneration-enhancing CUMS (chronic unpredictable mild stress) protocol. Neuronal cell loss was determined with crude homogenates of dissected hippocampi by direct binding assay with the neuron-specific [125]-labeled anti-NeuN antibody (MAB377, clone A60, EMD Millipore, Merck KGaA, Darmstadt, Germany). Similarly, the neuronal cell loss-causing PHF tau hyperphosphorylation was quantified with [125]-labeled AT8 antibody. […]

[2] = Serum concentration by HPLC in dogs after oral dosing; assay type: in vivo, dog; conditions: for steady-state serum concentrations of Compound-1 and Compound-1F compared: 28 days once daily oral dosing, 24 h after the last dose; for oral bioavailability: oral treatment; for dog dose roughly equivalent to 8 mg/kg/day in mice (by steady-state serum concentration): mice given compound in drinking water, dogs 28 days once daily oral dosing
Description: (§1) Dog serum concentrations of Compound-1, Compound-1F and Compound-4 were determined with serum isolated from the blood of German shepherd dogs (age: 8-9 months) taken at different time points (2 h, 4 h, 6 h, 8, 10 h, 24 h) after oral drug intake. The steady-state serum concentrations of Compound-1, Compound-1F and Compound-4 were determined in mice with blood isolated at the end of the study by cardiac puncture. Serum proteins were removed by acetonitrile precipitation, and compounds were extracted by chloroform before separation on an HPLC-C18 column (Poroshell 120 EC-C18, Agilent) with an HPLC system (Agilent 1100 Series) and detection at OD 280 nm, for Compound-1 and Compound-1F. Detection of Compound-4 was performed at OD 310 nm. The same extraction method was also used to determine Compound-1F in the serum of healthy human research participants. Dog hematology and biochemical parameters were determined by the Center of Applied Analytical and Veterinary Studies, Cairo, Egypt. ECG and blood pressure were measured by Dr. Mohamed Elsaed, Electrocardiography Unit, Faculty of Veterinary Medicine, Cairo University. The study was approved by the ethical committee of the Center of Applied and Veterinary Studies, Cairo, Egypt. Clinical laboratory parameters of human research participants were determined by the Rabaa El Adaweya Medical Central Hospital, Cairo, Egypt.

[3] = 28-day repeated oral dosing safety in German shepherd dogs; assay type: in vivo, dog; conditions: for sedation / ECG: P-R interval, QRS interval and Q-T interval before vs after treatment / blood levels of AST, ALT, ALP, BUN and fasting blood glucose / hematologic parameters (Hb, HCT, RBCs, MCV, MCHC) before vs after treatment / total number of white blood cells / systolic and diastolic blood pressure / heart rate / tolerability: dogs; for ECG: P-R interval, QRS interval and Q-T interval before vs after treatment / blood levels of AST, ALT, ALP, BUN and fasting blood glucose / hematologic parameters (Hb, HCT, RBCs, MCV, MCHC) before vs after treatment / total number of white blood cells: once daily 60, 120 and 200 mg for 28 days; for systolic and diastolic blood pressure: once daily 60, 120 and 200 mg/d for 28 days; for heart rate: repeated oral dosing for 28 days; for tolerability: therapeutic dose range; for body weight: male and female dogs, once daily 20, 60, 120 and 200 mg/d for 28 days
Description: as §1

[4] = dogs, oral gavage, single dose of 60 mg

SMILES	hippocampal neuronal loss (anti-NeuN antibody binding) [1]	steady-state serum concentrations of Compound-1 and Compound-1F compared ([2]; dogs)	pharmacokinetic profile compared to Compound-1 ([2]; dogs, oral)	oral bioavailability ([2]; dogs)	dog dose roughly equivalent to 8 mg/kg/day in mice (by steady-state serum concentration) [2] [mg/kg day]	sedation ([3]; daily dose of 120 mg/d)	sedation ([3]; highest dose of 200 mg)	ECG: P-R interval, QRS interval and Q-T interval before vs after treatment [3]	blood levels of AST, ALT, ALP, BUN and fasting blood glucose [3]	hematologic parameters (Hb, HCT, RBCs, MCV, MCHC) before vs after treatment [3]	total number of white blood cells [3]	systolic and diastolic blood pressure [3]	heart rate [3]	tolerability [3]	body weight [3]	dose dependence of peak serum concentration ([2]; dogs, 28 days repeated once daily dosing, 20, 60, 200 mg/day)	time to peak serum concentration ([2]; dogs, day 28 of repeated once daily dosing, 20, 60 and 200 mg/day) [h]	peak serum concentration [2, 4] [µg/mL]	time to peak serum concentration [2, 4] [h]	time to peak serum concentration ([2]; dogs, oral gavage, single dose of 200 mg) [h]
O=C(C1=C(O)C(c2ccc(F)cc2)N(c2ccc3c(c2)OCO3)C1=O)C1CC1 (stereo not shown) [Compound-1F, 1-(1,3-Benzodioxol-5-yl)-4-(cyclopropanecarbonyl)-2-(4-fluorophenyl)-3-hydroxy-2H-pyrrol-5-one]	retarded hippocampal neuronal loss	comparable	slower on-rate	good oral bioavailability	~0.7	no sedation	showed sedation	not significantly different	did not significantly alter	not significantly different	not altered	did not significantly change systolic and diastolic blood pressure	did not significantly affect heart rate	excellent tolerability	did not significantly change body weight	–	–	–	–	–
O=C(C1=C(O)C(c2ccccc2)N(c2ccc3c(c2)OCO3)C1=O)C1CC1 (stereo not shown) [Compound-1, 1-(1,3-benzodioxol-5-yl)-4-(cyclopropane-carbonyl)-3-hydroxy-2-phenyl-2H-pyrrol-5-one]	retarded hippocampal neuronal loss; also recorded: significantly retarded the loss of hippocampal neurons	comparable	–	good oral bioavailability	~0.7	no sedation	showed sedation	not significantly different	did not significantly alter	not significantly different	not altered	did not significantly change systolic and diastolic blood pressure	did not significantly affect heart rate	excellent tolerability	did not significantly change body weight	dose-dependent increase in the peak serum concentration	4	2	4	6
